From patent publication US20240327364A1, “THERAPEUTIC TARGETING OF GPR68 TO INDUCE FERROPTOSIS” (University Of Maryland, Baltimore, priority 2023, published 2024) come the findings set out here.

Each structure is given as a SMILES string.

One experiment has as its target T1, CXCR2 (Homo sapiens, UniProt P25025).
T1 construct: host or cells: Chem-1 cells with Gα15
The experiment can be described thus: GPCR Profiler. Type of experiment: cell-based.

The target of another experiment is T2, NEK6 (Homo sapiens, UniProt Q9HC98).
T2 construct: purchased DiscoveRx
T2 sequence (Q9HC98 whole entry): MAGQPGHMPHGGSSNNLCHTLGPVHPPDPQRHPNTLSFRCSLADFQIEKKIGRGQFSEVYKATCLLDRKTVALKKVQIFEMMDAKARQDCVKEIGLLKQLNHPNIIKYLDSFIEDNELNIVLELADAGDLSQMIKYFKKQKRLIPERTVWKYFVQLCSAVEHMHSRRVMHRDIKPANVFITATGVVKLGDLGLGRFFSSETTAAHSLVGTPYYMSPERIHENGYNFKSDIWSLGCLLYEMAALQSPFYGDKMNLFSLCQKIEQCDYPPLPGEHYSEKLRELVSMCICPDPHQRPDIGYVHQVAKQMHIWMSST
Description: KinomeScan. Type of experiment: binding. The following applies: read-out: % Control.

The target in the next experiment is T3, MRGX1 (Homo sapiens, UniProt Q96LB2).
T3 construct: host or cells: Chem-1 cells expressing Gα15
T3 sequence (Q96LB2 whole entry, species assumed): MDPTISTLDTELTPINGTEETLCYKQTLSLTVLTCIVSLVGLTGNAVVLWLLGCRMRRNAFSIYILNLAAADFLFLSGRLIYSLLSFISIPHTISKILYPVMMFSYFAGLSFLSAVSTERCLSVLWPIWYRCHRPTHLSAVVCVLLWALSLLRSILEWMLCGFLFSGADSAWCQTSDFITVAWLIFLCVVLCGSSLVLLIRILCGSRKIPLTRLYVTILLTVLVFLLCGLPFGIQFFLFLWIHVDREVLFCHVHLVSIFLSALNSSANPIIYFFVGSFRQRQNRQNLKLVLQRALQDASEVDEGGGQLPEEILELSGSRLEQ
Description: GPCR Profiler. The format is cell-based.

The target of a further experiment is T4, DDR2 (Homo sapiens, UniProt Q16832).
T4 construct: purchased DiscoveRx (Fremont, CA), KinomeScan service
T4 sequence (Q16832 22-855): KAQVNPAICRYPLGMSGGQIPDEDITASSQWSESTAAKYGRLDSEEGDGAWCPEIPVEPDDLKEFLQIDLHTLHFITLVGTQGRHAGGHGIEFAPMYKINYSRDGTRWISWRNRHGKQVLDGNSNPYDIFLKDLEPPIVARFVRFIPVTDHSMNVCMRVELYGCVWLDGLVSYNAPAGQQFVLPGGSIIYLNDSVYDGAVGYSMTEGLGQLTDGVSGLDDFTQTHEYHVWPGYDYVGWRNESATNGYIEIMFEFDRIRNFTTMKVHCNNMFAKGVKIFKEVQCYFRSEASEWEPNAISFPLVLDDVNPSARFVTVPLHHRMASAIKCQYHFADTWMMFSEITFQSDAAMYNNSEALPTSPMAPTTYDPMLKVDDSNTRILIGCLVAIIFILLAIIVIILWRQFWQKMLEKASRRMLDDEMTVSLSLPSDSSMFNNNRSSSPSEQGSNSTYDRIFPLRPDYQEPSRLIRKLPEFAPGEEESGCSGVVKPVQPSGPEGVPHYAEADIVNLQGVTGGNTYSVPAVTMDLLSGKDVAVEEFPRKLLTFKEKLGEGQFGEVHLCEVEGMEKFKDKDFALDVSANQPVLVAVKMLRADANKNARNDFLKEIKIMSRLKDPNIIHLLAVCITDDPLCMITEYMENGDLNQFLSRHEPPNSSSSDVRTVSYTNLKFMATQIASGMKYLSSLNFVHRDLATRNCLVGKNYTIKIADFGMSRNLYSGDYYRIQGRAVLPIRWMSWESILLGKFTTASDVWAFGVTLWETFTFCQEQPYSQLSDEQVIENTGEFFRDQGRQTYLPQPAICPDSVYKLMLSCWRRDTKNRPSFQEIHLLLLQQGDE
Description: KinomeScan. Type of experiment: binding. The following applies: read-out: % Control.

A further experiment deals with T5, BRSK1 (Homo sapiens, UniProt Q8TDC3).
T5 construct: purchased DiscoveRx (KinomeScan service)
The experiment can be described thus: KinomeScan. The following applies: read-out: % Control. The format is binding.

For the next experiment, the target named is T6, MRCKA (Homo sapiens, UniProt Q5VT25).
T6 construct: purchased DiscoveRx
The experiment can be described thus: KinomeScan. Type of experiment: binding. To be noted: read-out: % Control.

Another experiment deals with T7, QSK (Homo sapiens, UniProt Q9Y2K2).
T7 construct: purchased DiscoveRx (Fremont, CA)
Description: KinomeScan. Type of experiment: binding. To be noted: read-out: % Control.

Another experiment concerns the target T8, RET(V804M) (Homo sapiens, UniProt P07949, V804M).
T8 construct: purchased DiscoveRx (Fremont, CA)
The experiment can be described thus: KinomeScan. Type of experiment: binding. To be noted: read-out: % Control.

For another experiment, the target named is T9, ABL2 (Homo sapiens, UniProt P42684).
T9 construct: purchased DiscoveRx
T9 sequence (P42684 288-539 limits assumed): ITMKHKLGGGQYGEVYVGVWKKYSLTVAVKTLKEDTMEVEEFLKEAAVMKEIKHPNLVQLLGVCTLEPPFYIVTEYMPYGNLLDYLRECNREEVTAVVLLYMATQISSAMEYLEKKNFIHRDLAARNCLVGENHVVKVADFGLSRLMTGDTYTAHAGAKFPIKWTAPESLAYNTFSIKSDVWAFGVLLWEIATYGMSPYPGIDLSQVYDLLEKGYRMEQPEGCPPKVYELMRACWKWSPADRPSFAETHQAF
The experiment can be described thus: KinomeScan. Type of experiment: binding. To be noted: read-out: % Control.

The target of the next experiment is T10, FLT4 (Homo sapiens, UniProt P35916).
T10 construct: purchased DiscoveRx (Fremont, CA)
The experiment can be described thus: KinomeScan. Type of experiment: binding. The following applies: read-out: % Control.

The next experiment has as its target T11, PLK3 (Homo sapiens, UniProt Q9H4B4).
T11 construct: purchased DiscoveRx (Fremont, CA)
Description: KinomeScan. Type of experiment: binding. The following applies: read-out: % Control.

The next experiment addresses T12, VPAC1 (Homo sapiens, UniProt P32241).
T12 construct: host or cells: Chem-1 cells expressing Galpha15
Description: GPCR Profiler. Type of experiment: cell-based.

In another experiment the target is T13, LTK (Homo sapiens, UniProt P29376).
T13 construct: purchased DiscoveRx
Description: KinomeScan. The following applies: read-out: % Control. Type of experiment: binding.

A further experiment deals with T14, PIPSK1A (Homo sapiens, UniProt Q99755).
T14 construct: purchased DiscoveRx (Fremont, CA)
Description: KinomeScan. The format is binding. To be noted: read-out: % Control.

A further experiment concerns the target T15, GAL2 (Homo sapiens, UniProt O43603).
T15 construct: host or cells: Chem-1 cells expressing Gα15
The experiment can be described thus: GPCR Profiler. The format is cell-based.

Another experiment addresses T16, MEK5 (Homo sapiens, UniProt Q13163).
T16 construct: purchased DiscoveRx (Fremont, CA)
Description: KinomeScan. Type of experiment: binding. The following applies: read-out: % Control.

The next experiment deals with T17, PRKCD (Homo sapiens, UniProt Q05655).
T17 construct: purchased DiscoveRx (Fremont, CA)
Description: KinomeScan. The format is binding. To be noted: read-out: % Control.

A further experiment addresses T18, PKN1 (Homo sapiens, UniProt Q16512).
T18 construct: purchased DiscoveRx (Fremont, CA)
Description: KinomeScan. Type of experiment: binding. To be noted: read-out: % Control.

The target in a further experiment is T19, MYLK (Homo sapiens, UniProt Q15746).
T19 construct: purchased DiscoveRx
The experiment can be described thus: KinomeScan. Type of experiment: binding. The following applies: read-out: % Control.

Another experiment concerns the target GPR68 (Homo sapiens, UniProt Q15743). The experiment can be described thus: Flow-induced calcium response, Chem1-GPR68 cells. Type of experiment: cell-based. Also noted: host or cells: Chem-1 cells (Chem1-OGR1). The following applies: 5-minute pre-incubation with 3 μM OGM2. The method, then: Chem1-GPR68 cells were stained with calcium indicator dye, and then exposed to 34 dyn/cm^2 (3.4 Pa) of force, generating a robust calcium response that could be inhibited by a 5-minute pre-incubation with 3 μM OGM2. […] Of note, one example of a method to enhance expression of ATF4 gene is using CRISPRa with sgRNA targeting the ATF4 gene, including with the s RNAs with the following sequences: […]

The test system of another experiment is RWGT2. Description: Cell Titer-Glo viability, Lung cancer, squamous cell. Type of experiment: cell-based. The method, then: OGM2 kills wide variety of cancer cell types. Cell sensitivity can be classified in to Very Sensitive (LC50<2 μM), Sensitive (LC50=2 to 10 μM), Mildly Sensitive (LC50>10 μM), and Refractory (no killing at 10 μM). The listed established cell were incubated with OGM2 at 2 μM or 10 μM for 72 hours under standard cell culture conditions, and relative cell number was assessed using Cell Titer-Glo Luminescent Cell Viability Assay (Promega™) following the manufacturer's instructions. Luminescence was determined using a Cytation 5 reader and Gen5 software package (BioTek™).
Cancer cells, which are very sensitive to killing by OGM2 (LCs <2 μM), with reported mRNA expression of GPR68 and the related proton sensing receptor GPR4. LC50's (concentrations causing 50% lethality) were determined using CellTiter-Glo (Promega™, G7570). Cells were plated in 12-well plates (CELLTREAT Scientific Products, 229112) in 1 ml of DMEM with high glucose, GlutaMAX, HEPES, or RPMI 1640 with Penicillin-Streptomycin (ThermoFisher™, 10564029, 11875119 and 15140122) and 10% FBS. Cells were incubated overnight at 37° C. in 5% CO2. Then 1 mL of fresh media was added with DMSO, OGM, or positive control (Erastin; APExBIO Technology, LLC, B1524) and cells incubated for 3 days. On the third day, all media was removed, cells were rinsed with 1×PBS, PBS was removed, and 200 μL of 1× Passive Lysis Buffer (Promega™, E1941) was added to each well. […]. Subsequently, 20 μL of lysate was added to 100 μL CellTiter-Glo™ reagent on a LUMITRAC 200 plate (Greiner™ bio-one, 82050-726). Plates were briefly spun down and read on a GloMax-Multi Detection System (Promega™).
The cells listed in the tables above were incubated with OGM2 at 2 μM or 10 μM for 72 hours under standard cell culture conditions, and relative cell number was assessed using Cell Titer-Glo Luminescent Cell Viability Assay (Promega™) following the manufacturer's instructions. Luminescence was determined using a Cytation 5 reader and Gen5 software package (BioTek™). RNA expression of GPR68 and GPR4 in the corresponding cancer cell lines are listed, according to the publicly available The Human Protein Atlas version 22.0 and Ensembl version 103.38 (see proteinatlas.org). The consensus normalized expression value (“nTPM”=normalize transcript per million) was calculated as the maximum nTPM value for each gene in the two data sources.
In general terms: Cellular ATP, detected with luciferase, serves as a proxy for viable cell number.

T12 sequence (P32241 31-457): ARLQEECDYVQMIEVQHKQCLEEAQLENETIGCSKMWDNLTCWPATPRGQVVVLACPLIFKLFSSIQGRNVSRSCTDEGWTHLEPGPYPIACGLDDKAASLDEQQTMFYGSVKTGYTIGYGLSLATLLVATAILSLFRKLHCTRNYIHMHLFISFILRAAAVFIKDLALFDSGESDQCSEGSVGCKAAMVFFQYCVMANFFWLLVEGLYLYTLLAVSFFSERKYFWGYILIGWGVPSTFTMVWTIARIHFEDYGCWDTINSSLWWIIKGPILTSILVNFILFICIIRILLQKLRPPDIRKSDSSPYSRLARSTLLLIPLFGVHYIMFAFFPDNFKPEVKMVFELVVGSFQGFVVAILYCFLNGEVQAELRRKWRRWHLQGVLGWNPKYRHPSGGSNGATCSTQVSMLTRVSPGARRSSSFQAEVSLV
T15 sequence (O43603 whole entry): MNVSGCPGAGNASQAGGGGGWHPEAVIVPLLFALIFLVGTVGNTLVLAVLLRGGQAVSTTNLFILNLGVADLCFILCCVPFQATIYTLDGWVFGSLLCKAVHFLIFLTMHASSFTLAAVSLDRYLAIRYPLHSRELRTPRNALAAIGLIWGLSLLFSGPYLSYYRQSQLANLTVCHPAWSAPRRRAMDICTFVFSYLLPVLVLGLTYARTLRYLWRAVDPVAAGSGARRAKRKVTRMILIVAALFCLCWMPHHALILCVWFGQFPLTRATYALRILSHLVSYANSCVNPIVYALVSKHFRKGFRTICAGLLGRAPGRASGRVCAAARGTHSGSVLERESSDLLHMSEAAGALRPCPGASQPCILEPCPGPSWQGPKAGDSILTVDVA
T1 sequence (P25025 whole entry, species assumed): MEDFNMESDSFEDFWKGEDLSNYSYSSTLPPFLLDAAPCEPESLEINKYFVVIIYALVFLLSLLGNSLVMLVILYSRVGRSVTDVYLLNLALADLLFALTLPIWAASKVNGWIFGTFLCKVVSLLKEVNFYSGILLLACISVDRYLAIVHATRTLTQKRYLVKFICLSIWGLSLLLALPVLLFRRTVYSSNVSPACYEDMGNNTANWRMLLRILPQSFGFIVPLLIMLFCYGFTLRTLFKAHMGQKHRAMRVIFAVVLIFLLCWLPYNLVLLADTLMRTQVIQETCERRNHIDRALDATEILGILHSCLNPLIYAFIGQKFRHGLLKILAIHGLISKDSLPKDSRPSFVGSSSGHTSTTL
T18 sequence (Q16512 whole entry): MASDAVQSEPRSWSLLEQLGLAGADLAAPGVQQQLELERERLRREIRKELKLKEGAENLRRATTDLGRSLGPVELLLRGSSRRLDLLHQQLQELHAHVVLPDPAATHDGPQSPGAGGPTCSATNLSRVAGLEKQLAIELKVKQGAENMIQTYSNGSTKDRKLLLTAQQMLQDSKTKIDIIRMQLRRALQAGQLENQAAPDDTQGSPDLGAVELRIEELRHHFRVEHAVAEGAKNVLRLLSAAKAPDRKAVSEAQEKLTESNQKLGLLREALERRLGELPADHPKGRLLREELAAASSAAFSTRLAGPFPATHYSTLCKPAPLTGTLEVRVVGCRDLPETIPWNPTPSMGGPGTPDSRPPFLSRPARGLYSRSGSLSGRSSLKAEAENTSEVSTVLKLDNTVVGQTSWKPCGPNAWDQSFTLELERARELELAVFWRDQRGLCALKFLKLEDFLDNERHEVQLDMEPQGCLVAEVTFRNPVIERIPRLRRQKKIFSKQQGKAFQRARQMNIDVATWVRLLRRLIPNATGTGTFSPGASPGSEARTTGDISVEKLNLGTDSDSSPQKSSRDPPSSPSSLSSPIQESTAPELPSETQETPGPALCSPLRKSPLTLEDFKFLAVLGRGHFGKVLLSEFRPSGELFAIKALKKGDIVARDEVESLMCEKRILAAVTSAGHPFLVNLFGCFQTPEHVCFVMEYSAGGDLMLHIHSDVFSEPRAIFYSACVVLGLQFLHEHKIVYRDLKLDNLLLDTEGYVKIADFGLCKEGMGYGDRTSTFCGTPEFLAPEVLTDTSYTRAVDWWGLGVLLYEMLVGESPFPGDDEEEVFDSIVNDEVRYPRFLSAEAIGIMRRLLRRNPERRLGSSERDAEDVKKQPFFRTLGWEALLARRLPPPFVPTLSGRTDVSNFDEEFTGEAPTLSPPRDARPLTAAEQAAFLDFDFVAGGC
T11 sequence (Q9H4B4 whole entry): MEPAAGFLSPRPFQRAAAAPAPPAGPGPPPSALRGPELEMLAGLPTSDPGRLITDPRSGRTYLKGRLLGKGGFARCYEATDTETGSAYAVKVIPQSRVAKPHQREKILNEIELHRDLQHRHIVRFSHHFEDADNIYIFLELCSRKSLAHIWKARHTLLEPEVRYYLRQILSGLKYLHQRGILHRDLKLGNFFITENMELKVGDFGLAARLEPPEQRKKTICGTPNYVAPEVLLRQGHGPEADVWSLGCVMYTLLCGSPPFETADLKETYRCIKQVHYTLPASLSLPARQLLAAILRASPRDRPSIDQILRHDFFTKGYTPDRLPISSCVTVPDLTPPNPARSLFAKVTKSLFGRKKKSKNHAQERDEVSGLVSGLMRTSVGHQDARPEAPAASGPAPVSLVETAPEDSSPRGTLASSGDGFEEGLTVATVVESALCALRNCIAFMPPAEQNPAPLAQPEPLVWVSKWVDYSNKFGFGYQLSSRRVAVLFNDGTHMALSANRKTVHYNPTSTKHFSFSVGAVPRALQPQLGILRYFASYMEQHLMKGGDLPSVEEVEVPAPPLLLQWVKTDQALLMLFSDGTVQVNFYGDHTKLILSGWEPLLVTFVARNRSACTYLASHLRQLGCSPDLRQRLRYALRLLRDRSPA
T16 sequence (Q13163 whole entry): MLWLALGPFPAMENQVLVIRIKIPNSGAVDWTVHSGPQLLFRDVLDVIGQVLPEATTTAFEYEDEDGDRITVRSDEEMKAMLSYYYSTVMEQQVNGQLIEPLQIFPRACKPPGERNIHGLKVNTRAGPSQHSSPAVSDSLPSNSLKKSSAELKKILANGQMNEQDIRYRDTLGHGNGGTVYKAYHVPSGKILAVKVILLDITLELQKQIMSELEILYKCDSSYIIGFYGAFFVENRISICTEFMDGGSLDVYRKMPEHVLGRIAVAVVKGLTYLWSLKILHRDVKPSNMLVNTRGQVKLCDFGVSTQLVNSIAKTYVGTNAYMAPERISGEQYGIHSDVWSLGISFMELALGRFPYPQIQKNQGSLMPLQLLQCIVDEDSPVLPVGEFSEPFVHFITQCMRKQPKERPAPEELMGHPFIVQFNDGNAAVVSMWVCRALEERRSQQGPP

`CCc1ccc2c(c1)C1(NN=C(c3cccc4ccccc34)S1)C(=O)N2` (stereo not shown) [OGM1, 5-ethyl-5′-naphthalen-1-ylspiro[1H-indole-3,2′-3H-1,3,4-thiadiazole]-2-one]: the Antagonism on CXCR2 (10 uM) is on record as −3.1; at MRGX1 (10 uM), 2.3; at VPAC1 (10 uM), 16.6; on GAL2 (10 uM) it was 1. Also, the Agonism is 0.5 at CXCR2 (12.5 uM), −0.1 on MRGX1 (12.5 uM), 0 on VPAC1 (12.5 uM) and 0.4 on GAL2 (12.5 uM). Besides, the remaining binding at 10 µM at NEK6 stood at 100%; at DDR2, 86%; at BRSK1 it was 100%; on MRCKA, 78%; on QSK it was 100%; at RET(V804M), 100%. The remaining binding at 10 µM on ABL2 came to 100%; at FLT4, 100%; on PLK3, 100%; at LTK, 100%; at PIPSK1A it was 100%; at MEK5, 92%. Also, the remaining binding at 10 µM at PRKCD was determined as 100%; at PKN1, 100%; on MYLK, 91%.
With `CCc1ccc2c(c1)C1(NN=C(c3ccccc3)S1)C(=O)N2` (stereo not shown) [OGM2], the “calcium response to 34 dyn/cm^2 flow” value on GPR68 is “inhibited”. Also, the Class result in the experiment on RWGT2 is “Very Sensitive (Very Sensitive (LC50<2 μM))”. For the same molecule, in the experiment with RWGT2 (72 hours), the “% Survival 2 μM OGM” value amounted to 39.9% and the “% Survival 10 μM OGM” value amounted to 37.1%. Besides, the CC50 in the experiment on RWGT2 (Homo sapiens, 72 hours, read-out: LC50 (the source's name)) is less than 2 µM.
